PubChem BioAssay (NCI)
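Five concentrations, 48 hours, 96-well plates. GI50 marks 50% less growth. At the TGI there is no net growth.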

What was measured:
Assay in all cases: NCI-60 cell line screen, 48 h
[1] = system: NCI-H522 lung
[2] = system: SF-539 CNS
[3] = system: RPMI-8226 leukemia
[4] = system: M14 melanoma
[5] = system: HCC-2998 colon
[6] = system: 786-0 renal
[7] = system: A498 renal
[8] = system: SNB-19 CNS
[9] = system: HOP-62 NSCLC
[10] = system: NCI-H23 lung
[11] = system: OVCAR-4 ovarian
[12] = system: HCT-15 colon
[13] = system: NCI-H226 lung
[14] = system: SR leukemia
[15] = system: MDA-MB-435
[16] = system: T-47D breast
[17] = system: NCI/ADR-RES ovarian

Structure (SMILES)	TGI [1]	TGI [2]	TGI [3]	TGI [4]	TGI [5]	TGI [6]	TGI [7]	TGI [8]	TGI [9]	TGI [10]	TGI [11]	TGI [12]	TGI [13]	TGI [14]	TGI [15]	TGI [16]	TGI [17]	GI50 [12]	GI50 [4]
COc1cc2c(cc1OC)[C@]1(O)C(=O)c3ccc4c(c3O[C@@H]1CO2)C[C@H](C(C)(C)O)O4	> 100 µM	> 100 µM	> 100 µM	> 100 µM	> 100 µM	> 100 µM	> 100 µM	> 100 µM	> 100 µM	> 100 µM	–	–	–	–	–	–	–	–	–
CSc1ccc2c(cc1=O)C(NC(=O)c1cc(O)c(OC(=O)O)c(O)c1)CCc1cc(O)c(O)c(O)c1-2 (configuration not stated)	21.8 µM	> 90 µM	39.8 µM	30.5 µM	> 90 µM	> 90 µM	> 90 µM	> 90 µM	64.5 µM	42.5 µM	40.9 µM	34.3 µM	62.3 µM	–	–	–	–	–	–
CN1C(=O)c2cccc3c([N+](=O)[O-])ccc(c23)C1=O	2.91 µM	26.2 µM	–	23.1 µM	17.4 µM	21 µM	5.64 µM	28 µM	24.7 µM	24.7 µM	25.9 µM	11 µM	4.05 µM	14 µM	–	–	–	–	–
CC1=CC(=O)c2cccc(O)c2C1=O	5.42 µM	12.3 µM	> 40.3 µM	3.25 µM	16.8 µM	3.09 µM	33.5 µM	17.4 µM	30.9 µM	7.32 µM	3.39 µM	3.04 µM	14.4 µM	> 21.9 µM	3.28 µM	3.72 µM	–	–	–
O=c1oc2ccccc2c(O)c1C(c1ccc([N+](=O)[O-])cc1)c1c(O)c2ccccc2oc1=O	> 100 µM	–	–	–	–	> 100 µM	> 100 µM	> 100 µM	> 100 µM	> 100 µM	> 100 µM	> 100 µM	> 100 µM	–	> 100 µM	> 100 µM	> 100 µM	–	–
C/C(=N\O)C(CN(C)C)C(c1ccccc1)c1c(O)c2ccccc2oc1=O (configuration not stated)	> 100 µM	> 100 µM	> 100 µM	> 100 µM	> 100 µM	> 100 µM	> 100 µM	> 100 µM	> 100 µM	> 100 µM	> 100 µM	> 100 µM	> 100 µM	> 100 µM	–	–	–	–	–
O=C(Cc1ccccc1)NN1C(=O)C(Cl)C1c1cc(Br)cc(Br)c1O (configuration not stated)	16.9 µM	–	29.1 µM	45.6 µM	31.1 µM	36.7 µM	–	38.9 µM	54 µM	33.2 µM	80.4 µM	> 100 µM	36.9 µM	13.1 µM	–	–	–	–	–
N[C@H]1CCc2c1nc1c(c2-c2ccccc2)CC[C@@H]1N	30.1 µM	31.1 µM	> 100 µM	31.1 µM	49.2 µM	28.6 µM	–	> 100 µM	> 100 µM	61.6 µM	> 100 µM	> 100 µM	> 100 µM	> 100 µM	30.2 µM	–	> 100 µM	–	–
CCCCNC(=O)C1=C(C)NC(C)=C(C(=O)NCCCC)C1	–	> 100 µM	–	> 100 µM	> 100 µM	> 100 µM	> 100 µM	> 100 µM	> 100 µM	> 100 µM	> 100 µM	> 100 µM	> 100 µM	–	> 100 µM	> 100 µM	> 100 µM	–	–
COC(=O)C(=O)C(C(=O)C(=O)Nc1ccc([N+](=O)[O-])cc1C#N)c1nc2ccc([N+](=O)[O-])cc2[nH]c1=O (configuration not stated)	> 100 µM	> 100 µM	> 100 µM	> 100 µM	–	> 100 µM	> 100 µM	> 100 µM	> 100 µM	–	> 100 µM	> 100 µM	> 100 µM	> 100 µM	–	–	–	–	–
COc1cccc(NC(=O)c2c(SC)n[nH]c2N)c1	> 100 µM	> 100 µM	> 100 µM	> 100 µM	> 100 µM	> 100 µM	> 100 µM	> 100 µM	> 100 µM	–	> 100 µM	> 100 µM	> 100 µM	–	> 100 µM	–	> 100 µM	–	–
CCCC/C=C1\CCC(CN2CCOCC2)C1=O (configuration not stated)	2.17 µM	17.5 µM	2.59 µM	10.3 µM	22.1 µM	4.25 µM	27.4 µM	29.6 µM	30.2 µM	12.2 µM	36.1 µM	9.3 µM	24.2 µM	5.23 µM	23 µM	31.3 µM	–	3.05 µM	–
CCCN(CCC)C(=O)Cc1c2n(c3ccccc13)CCCc1ccccc1-2	25.3 µM	28.6 µM	37.6 µM	26.4 µM	25.9 µM	30.6 µM	–	27.7 µM	30.3 µM	25.7 µM	26.2 µM	23.8 µM	28.5 µM	24.8 µM	–	–	–	–	–
O=c1[nH]nc2c3n[nH]c(=O)n3c3ccccc3n12	> 100 µM	> 100 µM	> 100 µM	> 100 µM	> 100 µM	> 100 µM	> 100 µM	> 100 µM	> 100 µM	> 100 µM	> 100 µM	> 100 µM	> 100 µM	–	–	–	–	–	–
Nc1nonc1-c1noc(-c2nonc2N)[n+]1[O-]	28 µM	–	> 100 µM	> 100 µM	> 100 µM	> 100 µM	> 100 µM	> 100 µM	> 100 µM	> 100 µM	> 100 µM	49.1 µM	> 100 µM	> 100 µM	> 100 µM	–	> 100 µM	–	–
O=c1cc2oc3ccc4ccccc4c3cc-2c(=O)[nH]1	27.9 µM	25 µM	> 100 µM	32.2 µM	31.8 µM	26.7 µM	31.8 µM	27.2 µM	25.2 µM	4.78 µM	48.5 µM	22.9 µM	–	11 µM	25 µM	–	37.1 µM	–	–
COc1cccc2c1[C@H](OC)[C@]13O[C@@]1(C2=O)[C@H](O)[C@H](C)[C@@](O)(C(=O)[C@@H]1O[C@H]1C)[C@@H]3O	0.403 µM	0.975 µM	0.411 µM	0.395 µM	–	2.52 µM	0.585 µM	–	1.59 µM	0.541 µM	0.555 µM	2.07 µM	1.2 µM	–	0.518 µM	–	> 100 µM	–	0.197 µM

Structure (SMILES)	TGI [1]	TGI [2]	TGI [3]	TGI [4]	TGI [5]	TGI [6]	TGI [7]	TGI [8]	TGI [9]	TGI [10]	TGI [11]	TGI [12]	TGI [13]	TGI [14]	TGI [15]	TGI [16]	TGI [17]	GI50 [12]	GI50 [4]
CCC(=O)NCC1(c2c[nH]c3ccccc23)SCCS1	> 100 µM	> 100 µM	> 100 µM	> 100 µM	> 100 µM	> 100 µM	> 100 µM	> 100 µM	> 100 µM	> 100 µM	> 100 µM	> 100 µM	> 100 µM	> 100 µM	–	–	–	–	–
COc1ccc(/C=C/c2cc(=O)cc(/C=C/c3ccc(OC)c(O)c3)o2)cc1O	> 100 µM	3.47 µM	1.99 µM	4.45 µM	3.32 µM	> 34 µM	9.43 µM	> 39 µM	12.2 µM	5.8 µM	9.77 µM	13.6 µM	20.7 µM	2.89 µM	–	10.8 µM	> 24.3 µM	–	–
Clc1ccc(OCc2nnc(CCCCCCCCc3nnc(COc4ccc(Cl)cc4)o3)o2)cc1	> 100 µM	–	> 100 µM	> 100 µM	> 100 µM	> 100 µM	> 100 µM	> 100 µM	–	> 100 µM	> 100 µM	> 100 µM	> 100 µM	–	> 100 µM	–	> 100 µM	–	–
C=C(Cl)C(Br)(CCl)CCC(Cl)C(C)C (configuration not stated) (tested in a mixture with another compound)	2.95 µM	3.72 µM	–	3.87 µM	10.7 µM	2.74 µM	31.6 µM	10.7 µM	4.76 µM	3.79 µM	3.82 µM	–	13.6 µM	> 100 µM	3.67 µM	–	–	–	–
O=C1c2ccccc2C(=O)N1C/C=N/NS(=O)(=O)c1ccc(Cl)cc1	> 100 µM	> 100 µM	> 100 µM	> 100 µM	> 100 µM	> 100 µM	> 100 µM	> 100 µM	> 100 µM	> 100 µM	> 100 µM	> 100 µM	> 100 µM	> 100 µM	–	–	–	–	–
CCOC(=O)NC(=O)c1cn(-c2ccc(CCOC(=O)CCCCCCCCC(=O)OCCc3ccc(-n4cc(C(=O)NC(=O)OCC)c(=O)[nH]c4=O)cc3)cc2)c(=O)[nH]c1=O	–	> 100 µM	> 100 µM	> 100 µM	> 100 µM	> 100 µM	–	> 100 µM	> 100 µM	> 100 µM	> 100 µM	> 100 µM	> 100 µM	> 100 µM	–	–	–	–	–
CCN(CC)CCNC(=O)c1ccccc1Nc1c(Cl)cccc1Cl	–	32.7 µM	30.2 µM	34.5 µM	21 µM	19 µM	–	30.9 µM	24.2 µM	33.3 µM	30.2 µM	26 µM	38.5 µM	34.2 µM	–	–	–	–	–
COc1cccc(N2CCc3c(C)c(C#N)c4nc5ccccc5n4c32)c1	> 100 µM	> 100 µM	–	> 100 µM	> 100 µM	> 100 µM	> 100 µM	> 100 µM	> 100 µM	> 100 µM	> 100 µM	> 100 µM	> 100 µM	–	> 100 µM	–	> 100 µM	–	–
CCN(CC)CC1CCCCN1CC(=O)N1c2ccc(Br)cc2C(=O)Nc2cccnc21 (configuration not stated)	> 100 µM	> 100 µM	> 100 µM	> 100 µM	> 100 µM	> 100 µM	> 100 µM	> 100 µM	> 100 µM	> 100 µM	> 100 µM	> 100 µM	> 100 µM	> 100 µM	> 100 µM	> 100 µM	–	–	–
c1ccc(N=C2SC(c3ccccc3)CN2C23CC4CC(CC(C4)C2)C3)cc1 (configuration not stated)	> 100 µM	> 100 µM	> 100 µM	> 100 µM	> 100 µM	> 100 µM	> 100 µM	> 100 µM	> 100 µM	> 100 µM	> 100 µM	> 100 µM	> 100 µM	> 100 µM	> 100 µM	–	> 100 µM	–	–
CN(C)CC1CCC(CN(C)C)C1=NO (configuration not stated)	> 100 µM	> 100 µM	> 100 µM	> 100 µM	> 100 µM	> 100 µM	–	–	> 100 µM	–	> 100 µM	> 100 µM	–	> 100 µM	–	–	–	–	–
CN1C(=O)NC2(O)c3ccccc3C(=O)C12O (configuration not stated)	> 100 µM	–	> 100 µM	> 100 µM	–	> 100 µM	–	> 100 µM	–	> 100 µM	> 100 µM	> 100 µM	–	> 100 µM	–	–	–	–	–
CC(=O)C1CC2(c3ccccc3)C(=O)c3ccccc3N2O1 (configuration not stated)	> 100 µM	> 100 µM	> 100 µM	> 100 µM	> 100 µM	> 100 µM	> 100 µM	> 100 µM	> 100 µM	> 100 µM	> 100 µM	> 100 µM	> 100 µM	> 100 µM	–	–	–	–	–
COc1ccccc1OCc1nnc(SCC(=O)O)n1-c1ccccc1	> 100 µM	> 100 µM	> 100 µM	> 100 µM	> 100 µM	> 100 µM	> 100 µM	–	> 100 µM	> 100 µM	> 100 µM	> 100 µM	> 100 µM	> 100 µM	–	–	–	–	–
C/C(CC(=O)Nc1ccc(C)cc1)=N\NC(N)=S	> 100 µM	> 100 µM	> 100 µM	> 100 µM	> 100 µM	> 100 µM	> 100 µM	–	> 100 µM	> 100 µM	–	–	> 100 µM	–	–	–	–	–	–
S=c1scc(-c2ccc(Cl)cc2)n1OC1CCCC1	54.2 µM	35.5 µM	–	> 100 µM	71.2 µM	> 100 µM	79.8 µM	> 100 µM	> 100 µM	> 100 µM	> 100 µM	> 100 µM	–	–	79.3 µM	> 100 µM	> 100 µM	–	–
